# Results taken from patent US8158559B2, “Herbicidal combination comprising dimethoxytriazinyl-substituted difluoromethanesulfonylanilides” (Bayer Cropscience AG, priority 2008, dated 2012).
# Like-named read-outs stand apart in the source and are kept apart here.
# Assays:
# Test in all cases: Post-emergence action against weeds, greenhouse pot test, visual scoring
# Format in all cases: in vivo
# [1] = test system: Matricaria inodora (MATIN); conditions: Tripleurospermum inodorum, 504 h, read-out: % activity found
# Experimental: (§1) Seeds or rhizome pieces of mono- and dicotyledonous harmful and useful plants were placed in peat pots (diameter 4 cm) filled with sandy loam and then covered with soil. The pots were kept in a greenhouse under optimum conditions. In addition, harmful plants encountered in paddy rice cultivation were cultivated in pots with a water level 2 cm above the soil surface.
# (§2) About three weeks after the start of the cultivation, the test plants were treated at the 2- to 3-leaf stage. The herbicides, formulated as powder or liquid concentrates, were, either alone or in the combinations according to the invention, sprayed in various dosages on to the green parts of the plants using an application rate of 600 l of water/ha (converted). For further cultivation of the plants, the pots were then again kept under optimum conditions in a greenhouse.
# (§3) The visual scoring of the herbicidal effects was carried out in intervals up to 21 days after the treatment. Scoring was carried out in percent in comparison to the untreated control plants. 0%=no herbicidal activity, 100%=complete herbicidal activity=complete kill.
# (§4) The percentages from the treatments with the herbicides alone (=individual application) and with the combinations according to the invention (=mixtures) were employed to calculate interactions using the method of Colby. When the observed efficacies of the mixtures exceed the formal sum of the values of the tests with individual applications, they also exceed the expected value according to Colby, which is calculated using the formula below (cf. S. R. Colby; in Weeds 15 (1967) pp. 20 to 22): E=A+B−(A×B/100)
# (§5) Here: • A, B=activity of components A and B in percent at a dosage of a and b g of ai/ha (=gramm of active substance per hectare), respectively. • E=expected value in % at a dosage of a+b g of ai/ha. Results
# (§6) The combinations according to the invention of herbicides from group (A) with herbicides from group (B) were tested on a broad spectrum of important harmful plants (weed grasses, broad-leaved weeds/Cyperaceae) and useful plants: Triticum aestivum (TRZAS), Stellaria media (STEME), Lolium multiflorum (LOLMU), Veronica persica (VERPE), Alopecurus myosuroides (ALOMY), Matricaria inodora (MATIN), Brassica napus (BRSNW), Viola tricolor (VIOTR), Avena fatua (AVEFA), Amaranthus retroflexus (AMARE), Zea mays (ZEAMX), Pharbitis purpurea (PHBPU), Setaria viridis (SETVI), Fallopia (ex Polygonum) convolvulus (POLCO), Echinochloa crus-galli (ECHCG), Abuthilon theophrasti (ABUTH), Cyperus esculentus (CYPES), Oryza sativa (ORYSA).
# (§7) Of particular interest are the results shown in the tables (Tab.) below, where the following key is used: • (1) EPPO code (former Bayer code) for the treated plant (see above) • (2) Time of scoring: DAT (days after treatment) • (3) Component A tested (identifying number) • (4) Component B tested (identifying number) • (5) Dosage component A [g of ai/ha] • (6) Dosage component B [g of ai/ha] • (7) % activity found • (8) E value (calculated according to Colby; see above) • (9) Comments: “SYNERGY”=synergistic interaction (E value<% activity found); “SAFENING”=safener action on useful plant (E value>% activity found)
# Avena fatua (AVEFA) = conditions: 504 h, read-out: % activity found
# Experimental: as §1, §2, §3, §4, §5, §6, §7
# Oryza sativa (ORYSA) = conditions: read-out: % activity found; for inhibition at 4 g/ha: dosage 4 g of ai/ha; for inhibition at 12 g/ha: dosage 12 g of ai/ha
# Experimental: as §1, §2, §3, §4, §5, §6, §7
# [2] = test system: Triticum aestivum (TRZAS); conditions: read-out: % activity found; for inhibition at 12 g/ha: dosage 12 g of ai/ha
# Experimental: as §1, §2, §3, §4, §5, §6, §7
# Zea mays (ZEAMX) = conditions: read-out: % activity found; for inhibition at 4 g/ha: dosage 4 g of ai/ha
# Experimental: as §1, §2, §3, §4, §5, §6, §7
# [3] = test system: Lolium multiflorum (LOLMU); conditions: read-out: % activity found; for inhibition at 4 g/ha: dosage 4 g of ai/ha
# Experimental: as §1, §2, §3, §4, §5, §6, §7
# [4] = test system: Cyperus esculentus (CYPES); conditions: 504 h, read-out: % activity found
# Experimental: as §1, §2, §3, §4, §5, §6, §7
# Viola tricolor (VIOTR) = conditions: 240 h, read-out: % activity found
# Experimental: as §1, §2, §3, §4, §5, §6, §7
# [5] = 240 h, 10 DAT, dosage 12 g of ai/ha
# [6] = 504 h, 21 DAT, dosage 12 g of ai/ha
structure (smiles),measurement,setting,value
COc1nc(OC)nc(C(=O)c2cccc(F)c2N(C)S(=O)(=O)C(F)F)n1 [A-1],inhibition at 4 g/ha,"[1]; 21 DAT, dosage 4 g of ai/ha",50%
same,inhibition at 4 g/ha,"Avena fatua (AVEFA); 21 DAT, dosage 4 g of ai/ha",10%
same,inhibition at 12 g/ha,"Avena fatua (AVEFA); 21 DAT, dosage 12 g of ai/ha",30%
same,inhibition at 4 g/ha,"Oryza sativa (ORYSA); 240 h, 10 DAT",10%
same,inhibition at 12 g/ha,"Oryza sativa (ORYSA); 240 h, 10 DAT",10%
same,inhibition at 4 g/ha,"Oryza sativa (ORYSA); 504 h, 21 DAT",0%
same,inhibition at 12 g/ha,"Oryza sativa (ORYSA); 504 h, 21 DAT",10%
same,inhibition at 4 g/ha,"[2]; 240 h, 10 DAT, dosage 4 g of ai/ha",0%
same,inhibition at 12 g/ha,"[2]; 240 h, 10 DAT",0%
same,inhibition at 12 g/ha,"[2]; 504 h, 21 DAT",0%
same,inhibition at 4 g/ha,"Zea mays (ZEAMX); 240 h, 10 DAT",0%
same,inhibition at 12 g/ha,Zea mays (ZEAMX); [5],0%
same,inhibition at 4 g/ha,"Zea mays (ZEAMX); 504 h, 21 DAT",0%
same,inhibition at 12 g/ha,Zea mays (ZEAMX); [6],0%
same,inhibition at 4 g/ha,"[3]; 240 h, 10 DAT",0%
same,inhibition at 12 g/ha,[3]; [5],10%
same,inhibition at 4 g/ha,"[3]; 504 h, 21 DAT",0%
same,inhibition at 12 g/ha,[3]; [6],10%
same,inhibition at 4 g/ha,"[4]; 21 DAT, dosage 4 g of ai/ha",80%
same,inhibition at 4 g/ha,"Viola tricolor (VIOTR); 10 DAT, dosage 4 g of ai/ha",20%
same,inhibition at 12 g/ha,"Viola tricolor (VIOTR); 10 DAT, dosage 12 g of ai/ha",20%
"CCOC(=O)COc1ncccc1Oc1cc(-n2c(=O)cc(C(F)(F)F)n(C)c2=O)c(F)cc1Cl [B4-6, ethyl [[3-[2-chloro-5-[3,6-dihydro-3-methyl-2,6-dioxo-4-(trifluoromethyl)-1(2H)-pyrimidinyl]-4-fluorophenoxy]-2-pyridinyl]oxy]acetate, reference compound]",inhibition at 9 g/ha,[1],80%
same,inhibition at 3 g/ha,Avena fatua (AVEFA),0%
same,inhibition at 3 g/ha,Oryza sativa (ORYSA); 240 h,40%
same,inhibition at 9 g/ha,Oryza sativa (ORYSA); 240 h,40%
same,inhibition at 9 g/ha,[2]; 240 h,50%
same,inhibition at 3 g/ha,[2]; 504 h,30%
same,inhibition at 3 g/ha,Zea mays (ZEAMX); 240 h,40%
same,inhibition at 3 g/ha,Zea mays (ZEAMX); 504 h,30%
same,inhibition at 9 g/ha,[4],20%
same,inhibition at 3 g/ha,Viola tricolor (VIOTR),10%
same,inhibition at 9 g/ha,Viola tricolor (VIOTR),85%
"COc1cc(OC)nc(Oc2cccc(Oc3nc(OC)cc(OC)n3)c2C(=O)O)n1 [B2-1, sodium 2,6-bis[(4,6-dimethoxy-2-pyrimidinyl)oxy]benzoate, reference compound]",inhibition at 36 g/ha,Oryza sativa (ORYSA); 504 h,70%
same,inhibition at 12 g/ha,Zea mays (ZEAMX); 240 h,40%
same,inhibition at 36 g/ha,Zea mays (ZEAMX); 240 h,40%
same,inhibition at 12 g/ha,Zea mays (ZEAMX); 504 h,0%
same,inhibition at 36 g/ha,Zea mays (ZEAMX); 504 h,0%
same,inhibition at 12 g/ha,[3]; 240 h,40%
same,inhibition at 12 g/ha,[3]; 504 h,20%
same,inhibition at 36 g/ha,[3]; 504 h,70%
